Test results as given in PubChem BioAssay AID179 (DTP/NCI, 2004).
Values joined by “and” are separate entries in the source; they are usually repeats but may differ in a detail not shown here. Equal entries are not always repeated. Active and inactive are the calls of the source.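 Rule for the calls: active = compounds giving half or more protection of infected cells from virus-caused growth loss, again on retest; inactive = the rest.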 Where a SMILES comes first, the peptide text is derived from it. [ ]: non-standard residue; d: D form. The star is where a group is joined. NMeF = CN[CH](Cc1ccccc1)C(=O)O; NMeV = CN[CH](C(=O)O)C(C)C; Boc = CC(C)(C)OC(=O)*; OBn = c1ccc(CO*)cc1

Test system: CEM cells HIV-1 protection, formazan growth assay
Experiment: NCI AIDS Antiviral Assay
Conditions: for IC50: measured here: growth of uninfected CEM cells
Method in brief: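 CEM (human) cells, HIV-1 infected vs uninfected, 5-point dosing, formazan growth read-out. Retest threshold 50% protection.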

| Structure (SMILES) | EC50 [µM] | IC50 | outcome |
| --- | --- | --- | --- |
| CC(=O)[C@@]1(c2ccccc2)N(C(=O)c2ccccc2)[C@@]1(C)C(=O)c1ccccc1 | > 646 | 562 µM | – |
| CN(C)CCNc1ccc2c(=O)n(CCN(C)C)c(=O)n3c4ccc(O)cc4c(=O)c1c23 | > 0.2 | 0.0107 µM | – |
| Cc1ccc(C(=O)c2ccccc2C(=O)O)c(C)c1 | > 200 | > 200 µM | – |
| CCOC(=O)c1cc(OC(=O)CC)c2c(OC)ccc(OC)c2c1 | – | – | inactive |
| CC(C)=C[C@@H]1C[C@H](n2cc(C)c(=O)[nH]c2=O)ON1CCO | > 200 | > 200 µM | – |
| CC1=N/C(=C\c2ccc(C#N)cc2)C(=O)O1 | > 123 | > 123 µM | – |
| CC1=C(C(=O)Nc2ccccc2)C(c2cccc3ccccc23)C(C(=O)Nc2ccccc2)=C(C)N1 | – | – | inactive |
| Cc1nc2c(ccc3c(C)c(C)c(C)nc32)c(C)c1C | > 20 | 0.977 µM | – |
| CCCCCCCCCCCCCCCCOP(=O)(O)OP(=O)(O)OCC1OC(n2cnc3c(N)ncnc32)C(O)C1O (stereo not drawn) | > 200 | 120 µM | – |
| CC=C=C(C)CN | > 447 | > 447 µM | – |
| O=C1C=CC(=O)c2c1ccc1c3ccccc3n(CCCCCCCCn3c4ccccc4c4ccc5c(c43)C(=O)C=CC5=O)c21 | > 100 | 52.5 µM | – |
| Cc1cn(C2CCC(CO)(CO)CC2O)c(=O)[nH]c1=O (stereo not drawn) | > 871 | > 871 µM | – |
| Cc1cc(-c2ccc(C(=O)O)[nH]2)on1 | > 200 | 69.2 µM | – |
| CC(C)(C)c1cc(C(C)(C)C)c(N=O)c(C(C)(C)C)c1 | > 200 | > 200 µM | – |
| CC(C)C(NC(=O)OC(C)(C)C)C(=O)N(C)C(Cc1ccccc1)C(=O)N(C)C(C(=O)N(C)C(C(=O)OCc1ccccc1)C(C)C)C(C)C (stereo not drawn) (Boc-V[NMeF][NMeV][NMeV]-OBn; configuration not given here) | > 200 | > 200 µM | – |
| O=C(C1OC1c1ccc(F)cc1)C12CC3CC(CC(C3)C1)C2 (stereo not drawn) | > 200 | 12 µM | – |
| CN(C)c1ccc2cc3ccc(N(C)C)cc3nc2c1 | > 200 | 0.309 µM | – |
| COc1cc2c(cc1O)C1C(O)C(O)C=C3CCN(C2)C31 (stereo not drawn) | – | – | inactive |
| O=S(=O)(c1ccccc1)N1CC2C3C=CC(C3)C2C1 (stereo not drawn) | > 200 | 145 µM | – |
| N#CCCN(CCCN(CCCN(C(=O)Nc1ccccc1)c1ccccc1)C(=O)Nc1ccccc1)C(=O)Nc1ccccc1 | > 200 | 87.1 µM | – |
| CN(C)CC1CCC/C1=N\O (stereo not drawn) | > 1580 | 1380 µM | – |
| CN(C)c1ccc(C2SCC(=O)N2NS(=O)(=O)c2cccc(C(=O)O)c2)cc1 (stereo not drawn) | > 200 | 79.4 µM | – |
| CCN(CC)CCCCCCNc1cc(OC)cc2c(C)ccnc12 | > 603 | 19.5 µM | – |

| Structure (SMILES) | EC50 [µM] | IC50 | outcome |
| --- | --- | --- | --- |
| C/C(=N\NC(=S)N1CCCCCC1)c1ccccn1 | > 49 | 0.0372 µM | – |
| c1ccc(Cc2ccc(SSc3ccc(Cc4ccccc4)cc3)cc2)cc1 | > 200 | 26.9 µM | – |
| O=[N+]([O-])c1cc(Cl)c(O)c(N=Nc2cc(S(=O)(=O)O)c3cccc4c3c2N=NN4)c1 | > 91.2 | 51.3 µM | – |
| O=C(O)COc1cccc2ccccc(=O)c12 | > 200 | > 200 µM | – |
| COC(=O)C(=O)C(C(=O)C(=O)Nc1ccccc1C(C)=O)c1nc2ccc(C(=O)c3ccccc3)cc2[nH]c1=O (stereo not drawn) | > 93.3 | 55 µM | – |
| CN1C=COC1N=C1CCCCC1 (stereo not drawn) | > 200 | > 200 µM | – |
| CN(NC1=NCCO1)c1ccc2ccccc2c1 | > 200 | 28.8 µM | – |
| CCN(CC(O)COc1ccc2c(c1)[n+]([O-])nc(N)[n+]2[O-])C(C)=O (stereo not drawn) | > 200 | 23.4 µM | – |
| CC1(C)CCCC2(C)C3=C(CCC12)C(=O)OC3 (stereo not drawn) | > 30.9 | > 30.9 µM | – |
| COC(=O)c1ccccc1NC(=O)C(=O)Cc1nc2c3c(ccc2[nH]c1=O)C(=O)c1ccccc1C3=O | > 20.4 | > 20.4 µM | – |
| O=c1ccc2ccccc2n1O | > 200 | > 200 µM | – |
| CC(=O)C(=[N+]=[N-])C(=O)N1CCOC1=O | > 200 | > 200 µM | – |
| O=C(Nc1ccccc1)c1cc2ccc(O)c(O)c2cn1 | > 158 | 8.32 µM | – |
| COC(=O)[C@@]1(O)CC(C)C=C1C=O (stereo partly drawn) | > 1350 | 28.8 µM | – |
| C[N+](C)(C)C1CC([N+](C)(C)C)C2c3ccccc3C21 (stereo not drawn) | – | – | inactive |
| CCCCCCCCCCCCCC(=O)OC1C(O)C(CO)OC(OC)C1NC(=O)N(CCCl)N=O (stereo not drawn) | > 34.7 | > 34.7 µM | – |
| CCCCC#COS(=O)(=O)c1ccc(C)cc1 | > 251 | 138 µM | – |
| S=c1ncc2c([nH]1)C1c3ccccc3C2c2ccccc21 | > 200 | 120 µM | – |
| CSc1cc(Br)ccc1-n1c(C(=O)c2ccccc2)c(SC)n(-c2ccccc2)c1=O | > 200 | 14.5 µM | – |
| CN=C(NC)c1ccc(NC(=O)c2ccc(C(=O)Nc3ccc(C(=NC)NC)c(C)c3)cc2)cc1C | – | – | inactive |
| CC(C)CC1N=C(OCc2ccccc2)OC1=O (stereo not drawn) | > 200 | > 200 µM | – |
| N#Cc1nc(CCC(c2nc(C#N)c(N)o2)N2C(=O)c3ccccc3C2=O)oc1N (stereo not drawn) | > 200 | > 200 µM | – |
| NC(C(=O)OC(=O)c1ccccc1)C(=O)OC(=O)c1ccccc1 | > 200 | 97.7 µM | – |

| Structure (SMILES) | EC50 [µM] | IC50 | outcome |
| --- | --- | --- | --- |
| CC1=NOC(=O)C12CC2 | > 200 | > 200 µM | – |
| N#CC(C(=O)CCC(=O)Nc1cccc(C(F)(F)F)c1)c1ccccc1 (stereo not drawn) | > 692 | > 692 µM | – |
| Nc1nc(Cl)cc(NCCC2(CO)CCC2)n1 | > 200 | > 200 µM | – |
| CC#CCCC1CCCCN(C(=O)OC)C1OCC (stereo not drawn) | > 933 | 166 µM | – |
| NCC1OC(OC2C(N)CC(N)C(O)C2OC2OC(CO)C(O)C2O)C(N)C(O)C1O (stereo not drawn) | – | – | inactive |
| CC1(c2ccc3ccccc3c2)OC(=O)c2cccc(F)c21 (stereo not drawn) | – | – | inactive |
| CC(C)=CC(C(O)c1ccccc1)S(=O)(=O)c1nccn1C (stereo not drawn) | > 407 | > 407 µM | – |
| N.N.N.N.O=[N+]([O-])[O-].[Co+3].[N-]=[N+]=[N-].[N-]=[N+]=[N-] | – | – | inactive |
| COC(=O)/C=C\C(C#N)(C#N)N=Cc1ccc(C)s1 | > 2 | 0.575 µM | – |
| NC(c1ccccc1)(C(F)(F)F)P1(=O)OC(=O)c2ccccc2O1 (stereo not drawn) | > 200 | > 200 µM | – |
| COc1ccc(-c2c(C#N)c(-c3ccc(C)cc3)n(NS(=O)(=O)c3ccccc3)c(=O)c2C#N)cc1 | > 200 | 29.5 µM | – |
| O=C(NCc1ccccc1)/C(=C/c1ccccc1)NC(=O)c1ccccc1 | > 200 | > 200 µM | – |
| O=c1[nH]c(=O)n(C2C=CC(CO)O2)cc1COCC(F)(F)F (stereo not drawn) | 3.02 | 105 µM | – |
| CC(=O)n1[nH]c(=O)n(-c2ccccc2)c1=O | > 200 | > 200 µM | – |
| CN(C)c1cc(CNCCSC(C)(C)C)nc(CNCCSC(C)(C)C)c1 | > 200 | 4.57 µM | – |
| COC1OC(COC(=O)NCCCCC(=O)C(F)(F)C(F)(F)C(F)(F)C(F)(F)C(F)(F)C(F)(F)C(F)(F)F)C(O)C(O)C1O (stereo not drawn) | > 200 | 2.95 µM and 6.03 µM | – |
| COc1cccc2c1C(=O)C1(O)CCCCC21 (stereo not drawn) | 44.7 | > 200 µM | – |
| CC(=O)Oc1ccc2c(c1)O/C(=C\c1ccc(O)cc1)C2=O | > 200 | 138 µM | – |
| CC(C)(C)C1=C(Br)C(C(C)(C)C)OP1(=O)O (stereo not drawn) | > 100 | > 100 µM | – |
| Cc1ccc2ccc(-c3ccccc3)c3c2c1C(=O)c1ccccc1C3=O | – | – | inactive |
| O=C(NC1CCC(CC2CCC(NC(=O)c3cc(O)c(O)c(O)c3)CC2)CC1)c1cc(O)c(O)c(O)c1 (stereo not drawn) | > 100 | 10.5 µM | – |
| CC(C)CCOC(=O)NC(Nc1ccc(F)cc1)(C(F)(F)F)C(F)(F)F | – | – | inactive |
| Cc1ccc(S(=O)(=O)N2CCN(CCN(C)CCN3CCN(S(=O)(=O)c4ccc(C)cc4)CC3)CC2)cc1 | > 100 | 46.8 µM | – |

| Structure (SMILES) | EC50 [µM] | IC50 | outcome |
| --- | --- | --- | --- |
| Cc1c2ccccc2c(CSCC(N)C(=O)O)c2ccccc12 (stereo not drawn) | > 200 | > 200 µM | – |
| CN1CCC2c3c([nH]c4ccccc34)C(C)(C)OC2C1 (stereo not drawn) | > 200 | > 200 µM | – |
| O=C(NCCOC(=O)OCCNC(=O)NC1CCCCC1)NC1CCCCC1 | > 200 | > 200 µM | – |
| CC(C)(C)OC(=O)Cn1ncn(NC(=O)Cc2ccccc2)c1=O | > 200 | > 200 µM | – |
| Nc1cc(I)c2cccnc2c1O | > 209 | 1.26 µM | – |
| O=C(O)/C=C/C(=O)NNC(=O)/C=C/C(=O)O | > 1100 | 692 µM | – |
| Clc1nc2cc3nc(Cl)c(Cl)nc3cc2nc1Cl | > 50.1 | 33.1 µM | – |
| O=C(O)c1ccc2c(c1)CC1(C2)Cc2ccccc2C1=O (stereo not drawn) | > 200 | > 200 µM | – |
| O=C(O)c1ccc(C(c2c(O)c3ccccc3oc2=O)c2c(O)c3ccccc3oc2=O)cc1 | > 200 | 191 µM | – |
| ClC/C=C/C[P+](c1ccccc1)(c1ccccc1)c1ccccc1 | > 200 | 3.16 µM | – |
| COC(=O)NC1=Nc2ccccc2-c2ccccc2N1 | > 200 | 123 µM | – |
| COc1cc(/C=C(\NC(=O)c2ccccc2)c2nc3ncncc3[nH]2)cc(OC)c1OC | – | – | inactive |
| O=c1nc(NC(c2ccccc2)(c2ccccc2)c2ccccc2)ccn1CCNCCn1ccc(NC(c2ccccc2)(c2ccccc2)c2ccccc2)nc1=O | > 9.33 | > 9.33 µM | – |
| COc1ccc(-c2csc3c2-n2cccc2C3=O)cc1 | > 2 | 0.0363 µM | – |
| CCOc1ccccc1-n1c(-c2ccc([N+](=O)[O-])cc2)csc1=NC(=O)c1cccc([N+](=O)[O-])c1 | > 200 | 186 µM | – |
| C[C@]12CCc3nonc3C1CC[C@@H]1C2CC[C@]2(C)C(=O)CCC12 (stereo partly drawn) | > 83.2 | > 83.2 µM | – |
| COC(=O)/C=C\C(C#N)(C#N)N=Cc1cc(Br)cs1 | > 2 | 0.676 µM | – |
| CNCc1cc(OC)ccc1-c1ccc(OC)c(OC)c1OC | > 708 | 105 µM | – |
| COc1cc(N)c2nc(C(O)C(O)C(O)CO)cnc2c1 (stereo not drawn) | > 851 | 617 µM | – |
| O=C1c2cccc3c2C(=O)c2c(cccc21)OCCOCCOCCOCCO3 | – | – | inactive |
| CC1(CC2=C(Br)CCCC2)C(=O)CC=C1O (stereo not drawn) | > 200 | 174 µM | – |
